Assay results as given in PubChem BioAssay (NCI).
Several values for one entry are separate records, joined by “and”; a condition that tells them apart may be missing. Equal entries are not always repeated.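 Test compounds were applied to cells in 96-well plates for 48 hours at 5 doses. The concentration for 50% growth inhibition is given as GI50. Definition used: TGI = concentration required for complete inhibition of growth.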 Where a SMILES comes first, the peptide text is derived from it. The star is where a group is joined. Boc = CC(C)(C)OC(=O)*; Bn = c1ccc(C*)cc1

Tests used:
Experiment in all cases: DTP human tumour cell line panel, 48 h
A549 NSCLC = test system: A549 NSCLC
MCF7 breast = test system: MCF7 breast
MDA-N = test system: MDA-N
NCI-H226 lung = test system: NCI-H226 lung
NCI-H522 lung = test system: NCI-H522 lung
OVCAR-3 ovarian = test system: OVCAR-3 ovarian
OVCAR-4 ovarian = test system: OVCAR-4 ovarian
RXF 393 renal = test system: RXF 393 renal
SF-268 CNS = test system: SF-268 CNS
SK-MEL-2 melanoma = test system: SK-MEL-2 melanoma
T-47D breast = test system: T-47D breast
TK-10 renal = test system: TK-10 renal
CCRF-CEM leukemia = test system: CCRF-CEM leukemia

Row | Compound | TGI (A549 NSCLC) | TGI (MCF7 breast) | TGI (MDA-N) | TGI (NCI-H226 lung) | TGI (NCI-H522 lung) [µM] | TGI (OVCAR-3 ovarian) | TGI (OVCAR-4 ovarian) | TGI (RXF 393 renal) | TGI (SF-268 CNS) | TGI (SK-MEL-2 melanoma) [µM] | TGI (T-47D breast) | TGI (TK-10 renal) [µM] | TGI (CCRF-CEM leukemia) | GI50 (A549 NSCLC) | GI50 (CCRF-CEM leukemia) | GI50 (NCI-H226 lung) | GI50 (OVCAR-3 ovarian) | GI50 (RXF 393 renal) | GI50 (T-47D breast) | GI50 (TK-10 renal)
1 | C/C=C\C(CC(=O)OC)CC(=O)N(CCC1CN(S(=O)(=O)C(F)(F)F)c2ccccc21)Cc1ccc(OC)cc1OC (stereo not given) | > 100 µM | > 100 µM | > 100 µM | > 100 µM | > 100 | > 100 µM | > 100 µM | > 100 µM | > 100 µM | > 100 | > 100 µM | > 100 |  |  |  |  |  |  |  | 
2 | CN1CC2=C(NC(=S)NC2c2ccccc2Cl)/C(=C/c2ccccc2Cl)C1 (stereo not given) | > 100 µM | > 100 µM | > 100 µM | > 100 µM | > 100 | > 100 µM | 76.7 µM | > 100 µM | > 100 µM | > 100 | > 100 µM | > 100 | > 100 µM |  |  |  |  |  |  | 
3 | CC1(C)CCCCCCCCCC2CC2CCC(C)(C)C1=O (stereo not given) | 57.5 µM | 30 µM | > 100 µM | 31.2 µM | 30 | 25.9 µM | > 100 µM | 29.3 µM | 43.1 µM | 34.5 | 47.1 µM | 46 | 53.3 µM |  |  |  |  |  |  | 
4 | CNC(=O)C(CC(C)C)NC(=O)C(C)NC(=O)C(Cc1ccc(OCc2ccccc2)cc1)NC(=O)C(COCc1ccccc1)NC(=O)OC(C)(C)C (stereo not given) (Boc-S(Bn)Y(Bn)AL-NHMe; configuration not given here) | > 100 µM and 51.4 µM | 35.5 µM and 26.2 µM | 30 µM and 30.9 µM | > 68.5 µM and 39 µM | 37.4 | > 100 µM and 44 µM | 41.2 µM and 45.4 µM | > 100 µM and 24.3 µM | 53.8 µM and 46.5 µM |  | > 74 µM and 27.1 µM | > 100 | 18.9 µM and 39.6 µM | > 70.9 µM and 16.9 µM | 4.39 µM and 10.5 µM | 44.3 µM and 15.2 µM | 42.1 µM and 19.1 µM | 47.6 µM and 7.04 µM | 28.2 µM and 5.15 µM | > 73.8 µM and 29.1 µM
5 | O=C1CC2CC(CC3(CO3)C2)C1F (stereo not given) | > 100 µM | > 100 µM | > 100 µM | > 100 µM | > 100 |  | > 100 µM | > 100 µM | > 100 µM | > 100 | > 100 µM | > 100 | > 100 µM |  |  |  |  |  |  | 
6 | O=C(NCCCN(CCCCN(CCCNC(=O)c1cc(S(=O)(=O)O)cc(O)c1O)C(=O)c1cc(S(=O)(=O)O)cc(O)c1O)C(=O)c1cc(S(=O)(=O)O)cc(O)c1O)c1cc(S(=O)(=O)O)cc(O)c1O | > 100 µM |  | > 100 µM | > 100 µM | > 100 |  | > 100 µM |  | > 100 µM | > 100 | > 100 µM | > 100 | > 100 µM |  |  |  |  |  |  | 
7 | CC(=O)Nc1cc2nc3n(c2cc1C)CCC3OC(C)=O (stereo not given) | > 100 µM | > 100 µM | > 100 µM | > 100 µM | > 100 | > 100 µM | > 100 µM | > 100 µM | > 100 µM | > 100 | > 100 µM |  | > 100 µM |  |  |  |  |  |  | 
8 | CCOC(=O)N/N=C(\CC)OCC | > 100 µM | > 100 µM | > 100 µM |  | > 100 | > 100 µM |  | > 100 µM | > 100 µM | > 100 | > 100 µM | > 100 | > 100 µM |  |  |  |  |  |  | 
9 | CCOC(=O)C1(N)CC1 | > 100 µM | > 100 µM | > 100 µM | > 100 µM | > 100 | > 100 µM | > 100 µM | > 100 µM | > 100 µM |  | > 100 µM | > 100 | > 100 µM |  |  |  |  |  |  | 
10 | CS(=O)(=O)O[C@H]1[C@H](O)c2ccccc2[C@@H]1N=[N+]=[N-] | > 100 µM | > 100 µM | > 100 µM | > 100 µM | > 100 | > 100 µM | > 100 µM | > 100 µM |  | > 100 |  |  | > 100 µM |  |  |  |  |  |  | 
11 | O=C(CN=C(CN(c1ccccc1)c1ccccc1)Oc1ccc(Cl)cc1Cl)n1ccnc1 | > 100 µM | > 100 µM | > 100 µM | > 100 µM |  | > 100 µM | > 100 µM | > 100 µM | > 100 µM | > 100 | > 100 µM | > 100 | > 100 µM |  |  |  |  |  |  | 
12 | Cc1ccc(C(=O)N/N=C(\N=Nc2ccccc2Cl)c2ccc(N(C)C)cc2)cc1 | > 100 µM | > 100 µM | 34.5 µM | > 100 µM | > 100 | > 100 µM | 78.4 µM |  | > 100 µM | > 100 | 24.5 µM | > 100 | > 100 µM |  |  |  |  |  |  | 
13 | CCOc1cccc(-c2cc(=O)c3cc4c(cc3[nH]2)OCO4)c1 | 28.9 µM | > 100 µM | > 100 µM | 15.1 µM | 0.684 | 3.88 µM | > 100 µM | 1.82 µM | > 82.1 µM | 24.9 | > 100 µM | 8.45 |  |  |  |  |  |  |  | 
14 | C#CCOCn1cc(C)c(=O)[nH]c1=O | > 100 µM | > 100 µM | > 100 µM | > 100 µM |  |  |  |  | > 100 µM | > 100 | > 100 µM | > 100 | > 100 µM |  |  |  |  |  |  | 
15 | CCOC(=O)C(NC(=O)CC)(Nc1ccc(F)cc1F)C(F)(F)F (stereo not given) | > 100 µM |  | > 100 µM |  |  |  |  | > 100 µM | > 100 µM | > 100 | > 100 µM | > 100 | > 100 µM |  |  |  |  |  |  | 
16 | COC(=O)[C@]12CSC[C@H]1C[C@H](c1cccc3ccccc13)N2 | > 100 µM | > 100 µM | > 100 µM | > 100 µM |  | > 100 µM |  |  |  | > 100 | > 100 µM |  | > 100 µM |  |  |  |  |  |  | 
17 | O=C1[C@@H](O)[C@@H]2CCCC[C@@]23CCCN13 | > 100 µM | > 100 µM | > 100 µM | > 100 µM | > 100 |  | > 100 µM | > 100 µM | > 100 µM | > 100 | > 100 µM | > 100 | > 100 µM |  |  |  |  |  |  | 
18 | COc1ccc(-c2nc3c(C(=O)NCCN(C)C)cccc3c3ccccc23)cc1 | 12.6 µM | 8.65 µM | 5.45 µM | 17.1 µM | 8.82 | 16.6 µM | 12.5 µM |  | 24.5 µM | 18.4 | 29.7 µM | 19.8 | 10.3 µM |  |  |  |  |  |  | 
19 | CC1=N[C@@](C)(C2CC3C=CC2C3=O)COC1=O (stereo not given in full) | > 100 µM | > 100 µM | > 100 µM | > 100 µM | > 100 | > 100 µM | > 100 µM | > 100 µM | > 100 µM |  | > 100 µM | > 100 | > 100 µM |  |  |  |  |  |  | 
20 | C[N+]12C=CC=C1C(N1CCCC1)c1scc(-c3ccc(F)cc3)c12 (stereo not given) | > 100 µM | 88.6 µM | > 100 µM | > 100 µM | > 100 | > 100 µM |  | > 100 µM | > 100 µM | 49 | 80.5 µM |  | 4.4 µM |  |  |  |  |  |  | 
21 | Cc1ccccc1Nc1nc(NNC(=O)Cc2ccccc2)nc(NNC(=O)c2ccncc2)n1 |  | > 10 µM | > 10 µM |  |  |  | > 10 µM |  | > 10 µM |  | > 10 µM | > 10 | > 10 µM |  |  |  |  |  |  | 
22 | COc1ccc2c(c1OC)C(=O)N/C2=C\c1c(CCN(C)C)cc2c(c1OC)OCO2 | > 100 µM | > 100 µM | > 100 µM | > 100 µM | > 100 | > 100 µM | > 100 µM | 84.1 µM | > 100 µM |  | > 100 µM | > 100 | > 100 µM |  |  |  |  |  |  | 
23 | CCOC(=O)c1sc2nc1CSc1sc(=S)sc1SCc1nc(sc1C(=O)OCC)-c1nc(c(C(=O)OCC)s1)CSc1sc(=S)sc1SCc1nc-2sc1C(=O)OCC | > 10 µM | > 10 µM | > 10 µM |  | > 10 | > 10 µM | > 10 µM | > 10 µM | > 10 µM | > 10 | > 10 µM | > 10 | > 10 µM |  |  |  |  |  |  | 
24 | CC(=O)Oc1ccc2cc(-c3ccc(OC(C)=O)c(OC(C)=O)c3)c(=O)oc2c1 | > 100 µM | > 100 µM | > 100 µM | > 100 µM | > 100 | > 100 µM | > 100 µM |  | > 100 µM | > 100 | 62.1 µM | > 100 | > 100 µM |  |  |  |  |  |  | 
25 | CC(C)(C)n1c(=O)n2n(c1=O)C1c3cccc4cccc(c34)C2C2c3cccc4cccc(c34)C1n1c(=O)n(C(C)(C)C)c(=O)n12 | > 100 µM | > 100 µM | > 100 µM | > 100 µM | > 100 | 60 µM |  |  | > 100 µM | > 100 | > 100 µM | > 100 | > 100 µM |  |  |  |  |  |  | 
26 | Cc1cc2c(cc1Cl)SC(NNC1=NCCN1)=NS2(=O)=O | > 10 µM |  | > 10 µM | > 10 µM | > 10 | > 10 µM | > 10 µM | > 10 µM | > 10 µM | > 10 | > 10 µM | > 10 | > 10 µM |  |  |  |  |  |  | 
27 | O=S(=O)(CCC[C@H]1[C@@H](CCOCc2ccccc2)C2CCCN1O2)c1ccccc1 (stereo not given in full) | > 100 µM | > 100 µM | > 100 µM | > 100 µM | > 100 | > 100 µM | > 100 µM | > 100 µM | > 100 µM |  | > 100 µM | > 100 | > 100 µM |  |  |  |  |  |  | 
28 | O=C1C=C(c2ccccc2)O/C1=C\C(=O)c1ccc(Cl)cc1 |  | 34.9 µM | 38.7 µM | 44.5 µM | 44.2 | 47.1 µM | 58.2 µM | 32.6 µM | 52.2 µM |  | 74.1 µM | 35 |  |  |  |  |  |  |  | 
